Our source for the EC50 and IC50 values is ChEMBL document CHEMBL1125188, “Synthesis and evaluation of stilbene and dihydrostilbene derivatives as potential anticancer agents that inhibit tubulin polymerization” (J Med Chem, 1991).

A value given as a limit tells only on which side of the number the result lay.

One experiment concerns SK-MEL-5. In words: Cytotoxic concentration required to inhibit 50% cell growth in SKMEL-5 melanoma cell lines. The format is functional. The note with it: Homo sapiens, read-out: ED50 (the source's name).
A further experiment has as its system HT-29. Briefly: Cytotoxic concentration required to inhibit 50% cell growth in HT-29 colon adenocarcinoma cell lines. The format is functional. The note with it: Homo sapiens, read-out: ED50 (the source's name).
In another experiment the test system is A549. In words: Cytotoxic concentration required to inhibit 50% cell growth in A-549 lung carcinoma cell lines. The format is functional. The note with it: Homo sapiens, read-out: ED50 (the source's name).
A further experiment concerns the target Tubulin (Bos taurus, UniProt Q6B856+Q862L2+Q862F3). In words: Ability to inhibit Tubulin polymerization in Bovine brain. It counts as functional, tissue-based.
In the next experiment the test system is MCF7. Briefly: Cytotoxic concentration required to inhibit 50% cell growth in MCF-7 breast carcinoma cell lines. The note with it: Homo sapiens, read-out: ED50 (the source's name). The format is functional.
For a further experiment, the system named is MLM. Briefly: Cytotoxic concentration required to inhibit 50% cell growth in MLM melanoma cell lines. It counts as functional. As to conditions: Homo sapiens, read-out: ED50 (the source's name).

The IC50 is the concentration that inhibits the measured activity by half. Low readings indicate greater potency, high ones weaker potency. Take `COc1cc(/C=C\c2ccc(Br)cc2)cc(OC)c1OC`: the EC50 turned out to be 6.7 nM in the experiment on SK-MEL-5; 8.2 nM in the experiment with HT-29; 11 nM in the experiment with A549; 16 nM in the experiment on MCF7; 14 nM in the experiment on MLM. In addition, on Tubulin, the IC50 was 3100 nM.

Take `COc1cc(/C=C\c2ccccc2)cc(OC)c1OC`: the EC50 was 120 nM in the experiment on SK-MEL-5; 84 nM with HT-29; 170 nM in the experiment on A549; 250 nM with MCF7; more than 25000 nM with MLM. The IC50 at Tubulin stood at 36000 nM.

In the case of `COc1ccc(CCc2cc(OC)c(OC)c(OC)c2)cc1O`, the EC50 in the experiment with SK-MEL-5 is 2.1 nM; in the experiment on HT-29, 81 nM; with A549, 10 nM; in the experiment with MCF7, 330 nM; in the experiment on MLM, 10 nM. On Tubulin, this compound registered an IC50 of 3300 nM.

For the compound `COc1ccc(NCc2cc(OC)c(OC)c(OC)c2)cc1`, the EC50 with SK-MEL-5 was found to be 0.7 nM; with HT-29, 1 nM; in the experiment with A549 it was 1.9 nM; in the experiment with MCF7 it was 2.4 nM; with MLM, 1.6 nM. The compound also displayed a half-inhibitory concentration (IC50) at Tubulin of 23000 nM.

With `COc1cc(/C=C/c2ccc(N(C)C)cc2)cc(OC)c1OC`, the EC50 is 4.6 nM in the experiment with SK-MEL-5; 6.9 nM in the experiment with HT-29; 6.1 nM in the experiment on A549; 82 nM with MCF7; 12.5 nM in the experiment on MLM. Further, the IC50 against Tubulin is more than 50000 nM.

As to `COc1cccc(/C=C\c2cc(OC)c(OC)c(OC)c2)c1`, the EC50 in the experiment on SK-MEL-5 was found to be 60 nM; in the experiment with HT-29, 90 nM; with A549, 130 nM; with MCF7, 140 nM; in the experiment on MLM, 1400 nM. Moreover, on Tubulin, the IC50 stood at 8800 nM.

Take `COc1ccc(/C=C\c2cc(OC)c(OC)c(OC)c2)c(Cl)c1`: the EC50 in the experiment with SK-MEL-5 was determined as 17 nM; in the experiment with HT-29, 66 nM; in the experiment on A549, 51 nM; in the experiment on MCF7, 46 nM; in the experiment with MLM, 140 nM. On Tubulin, this compound registered an IC50 of 3500 nM.

As for `COc1cc(/C=C\c2ccc(Cl)cc2)cc(OC)c1OC`, the EC50 with SK-MEL-5 stood at 10 nM; in the experiment with HT-29, 50 nM; in the experiment on A549 it was 80 nM; in the experiment on MCF7 it was 180 nM; in the experiment on MLM it was 170 nM. This compound yielded a half-inhibitory concentration (IC50) against Tubulin of 4800 nM.

Take `COc1ccc(CCc2cc(OC)c(OC)c(OC)c2)cc1`: the EC50 with SK-MEL-5 was 0.14 nM; with HT-29, 0.25 nM; with A549, 0.18 nM; in the experiment on MCF7 it was 0.16 nM; with MLM it was 0.18 nM. In addition, the IC50 against Tubulin came to 7900 nM.

Regarding `COc1cc(/C=C/c2ccc(OC)c(OC)c2)cc(OC)c1` [(E)-3,4,3',5'-TETRAMETHOXYSTILBENE], the EC50 in the experiment with SK-MEL-5, with HT-29, in the experiment with A549, in the experiment with MCF7 and in the experiment with MLM was more than 25000 nM throughout.

With `COc1ccc(C(=O)Nc2cc(OC)c(OC)c(OC)c2)cc1`, the EC50 in the experiment with SK-MEL-5, with HT-29, in the experiment on A549, in the experiment with MCF7 and in the experiment with MLM was more than 25000 nM in each case.

In the case of `COc1ccc(/C=C\c2cc(OC)c(OC)c(OC)c2)cc1`, the EC50 with HT-29 was determined as 0.027 nM; in the experiment with A549 it was 0.022 nM; in the experiment on MLM, 0.093 nM. Moreover, the IC50 at Tubulin amounted to 2200 nM.

For the compound `COc1ccc(CNc2cc(OC)cc(OC)c2)cc1`, the EC50 in the experiment with SK-MEL-5, in the experiment on HT-29, in the experiment on A549, in the experiment on MCF7 and in the experiment with MLM was more than 25000 nM in each case.

For the compound `COc1cc(/C=C/c2ccc(N)cc2)cc(OC)c1OC`, the EC50 in the experiment on SK-MEL-5, in the experiment on HT-29, with A549, in the experiment with MCF7 and in the experiment with MLM was more than 25000 nM in each case.

As for `COc1cc(CCc2cc(OC)c(OC)c(OC)c2)cc(OC)c1OC`, the EC50 with SK-MEL-5, in the experiment on HT-29, in the experiment on A549, with MCF7 and in the experiment with MLM was more than 25000 nM in each case.

On to `COc1cc(/C=C\c2ccc(OC(C)=O)cc2)cc(OC)c1OC`, for which the EC50 in the experiment on SK-MEL-5 is 6000 nM; with HT-29, 6000 nM; in the experiment on A549, 1700 nM; in the experiment on MCF7, 3000 nM; with MLM it was 6300 nM. Also, the IC50 against Tubulin was found to be 29000 nM.

For the compound `COc1cccc2c1C(=O)c1c(O)c3c(c(O)c1C2=O)C[C@@](O)(C(=O)CO)C[C@@H]3O[C@H]1C[C@H](N)[C@H](O)[C@H](C)O1` [DOXORUBICIN], the EC50 in the experiment with SK-MEL-5 was found to be 32 nM; with HT-29, 55 nM; in the experiment on A549, 29 nM; in the experiment on MCF7 it was 31 nM; in the experiment with MLM it was 130 nM.

As to `COc1cc(/C=C/c2cccnc2)cc(OC)c1OC`, the EC50 in the experiment with SK-MEL-5, in the experiment with HT-29, in the experiment on A549, with MCF7 and in the experiment with MLM was more than 25000 nM in each case.

As to `COc1ccc(CNc2cc(OC)c(OC)c(OC)c2)cc1`, the EC50 with SK-MEL-5 is 1130 nM; with HT-29, 2240 nM; in the experiment with A549 it was 830 nM; with MCF7, 860 nM; in the experiment on MLM, more than 25000 nM. Further, the IC50 against Tubulin was more than 50000 nM.

As to `COc1cc(/C=C\c2ccncc2)cc(OC)c1OC`, the EC50 in the experiment on SK-MEL-5 is 14400 nM; in the experiment with HT-29, 12900 nM; in the experiment with A549, 14200 nM; in the experiment with MCF7, 17000 nM; with MLM, more than 25000 nM.

In the case of `COc1cc(OC)c(OC)cc1/C=C/c1ccccc1`, the EC50 is more than 25000 nM in the experiment on SK-MEL-5; more than 25000 nM in the experiment with HT-29; more than 25000 nM in the experiment on A549; 8500 nM with MCF7; more than 25000 nM with MLM.

Regarding `COc1cc(/C=C/c2ccc(OC(C)=O)cc2)cc(OC)c1OC`, the EC50 in the experiment with SK-MEL-5 stood at 4600 nM; in the experiment with HT-29, 5400 nM; with A549, 9700 nM; in the experiment with MCF7, 9600 nM; in the experiment with MLM it was 13000 nM.

As to `COc1ccc(NCc2cc(OC)cc(OC)c2)cc1`, the EC50 in the experiment on SK-MEL-5 is 2410 nM; in the experiment with HT-29, 17800 nM; in the experiment with A549 it was 5710 nM; with MCF7, 6080 nM; with MLM, more than 25000 nM. The IC50 on Tubulin came out at 29000 nM.

With `COc1ccc(/C=C/c2cc(OC)c(OC)c(OC)c2)cc1`, the EC50 in the experiment with SK-MEL-5 was determined as 810 nM; in the experiment with HT-29, 1820 nM; in the experiment on A549, 1180 nM; in the experiment with MCF7, 1050 nM; with MLM it was 2070 nM. In addition, the IC50 against Tubulin was more than 50000 nM.

In the case of `COc1cc(/C=C\c2ccc([N+](=O)[O-])cc2)cc(OC)c1OC`, the EC50 in the experiment with SK-MEL-5, with HT-29, with A549, in the experiment with MCF7 and with MLM was more than 25000 nM in each case.

With `COc1cc(CCc2cccnc2)cc(OC)c1OC`, the EC50 in the experiment on SK-MEL-5 was more than 25000 nM; in the experiment on HT-29, more than 25000 nM; with A549 it was 12200 nM; in the experiment with MCF7, more than 25000 nM; in the experiment with MLM it was more than 25000 nM.

For `COc1ccccc1/C=C/c1cc(OC)c(OC)c(OC)c1`, the EC50 was 13500 nM in the experiment with SK-MEL-5; 12100 nM with HT-29; 12200 nM in the experiment on A549; 18000 nM in the experiment on MCF7; more than 25000 nM in the experiment on MLM.

For `COc1cc(/C=C\c2ccc(N(C)C)cc2)cc(OC)c1OC`, the EC50 came to 0.15 nM with SK-MEL-5; 8.1 nM in the experiment with HT-29; 4.1 nM in the experiment on A549; 5.8 nM in the experiment with MCF7; 9.4 nM in the experiment with MLM. Moreover, the IC50 on Tubulin amounted to 3400 nM.

Consider `COc1cc(/C=C\c2ccc(O)cc2)cc(OC)c1OC`, for which the EC50 in the experiment on SK-MEL-5 amounted to 2270 nM; in the experiment on HT-29 it was 1750 nM; in the experiment with A549 it was 12700 nM; with MCF7 it was 5700 nM; in the experiment on MLM, 12600 nM.

Take `COc1cc(CCc2ccc(N(C)C)cc2)cc(OC)c1OC`: the EC50 in the experiment on SK-MEL-5 amounted to 59 nM; in the experiment with HT-29, 77 nM; with A549, 83 nM; with MCF7 it was 64 nM; with MLM, 120 nM. Moreover, the IC50 on Tubulin stood at 29000 nM.

Turning to `COc1cc(/C=C/c2ccc(O[Si](C)(C)C(C)(C)C)cc2)cc(OC)c1OC`, the EC50 in the experiment with SK-MEL-5, in the experiment on HT-29, in the experiment with A549, in the experiment on MCF7 and in the experiment with MLM was more than 25000 nM throughout.
